Test results from patent US9271991B2, “Trimegestone (TMG) for treatment of preterm birth” (Dignity Health, priority 2010, dated 2016).
Several values for one entry are separate records, joined by “and”; a condition that tells them apart may be missing. Equal values may be shown once.

What was measured:
[1] = test system: pregnant rats (term delivery); experiment: Delay of term delivery in pregnant rats; type: in vivo, Sprague-Dawley rats; settings: pregnant rats
From the text: Timed-pregnant Sprague-Dawley rats (200-250 g) from Charles-River Laboratories (Wilmington, Mass., USA) were delivered to our animal care facilities on day 15 of gestation (day 1 being the day when a sperm plug was observed). The animals were housed separately, with free access to food and water and maintained on a constant 12-hour light-dark cycle. Control pregnant rats were spontaneously delivering on day 22 of gestation. The animals were randomly allocated into groups and sacrificed by carbon dioxide inhalation on day 5 postpartum or on day 25 of gestation in the groups with delayed delivery.
Pregnant rats (N=6 per group) were treated, when not otherwise mentioned, from day 20 of gestation until delivery. Single daily treatments were performed at 8 am and twice a day treatments at 8 am and 8 pm. Treatment began daily on day 20 of gestation with vehicles or: a) Topical P4 at various doses (4-30 mg/day, vehicle (v)=fish oil) or topical TMG ([…], v=fish oil; b) Subcutaneous (s.c.) P4 (0.5-4 mg/day, v=sesame oil) or s.c. TMG (0.5-2 mg/day, v=benzyl benzoate (BB) and castor oil (CO), 1:4). Delivery times were observed.
Subcutaneous treatments. All daily injections were by the subcutaneous route (s.c) in […] for the P4 treatments and benzyl benzoate (BB, 1 part): castor oil (CO, 4 parts) for the TMG group. P4 and TMG had dose ranges of 0.5 mg-4 mg per day and 0.5 mg-2 mg per day, respectively. Vehicles only are used in the control groups.
Topical treatments. Topical P4 and TMG (in fish oil and benzyl benzoate:castor oil (1:4), respectively) treatments were applied to the shaved back of the rat twice a day For topical treatments of P4 and TMG, dose range from 2 mg-30 mg per day and 0.005 to 0.5 mg per day, respectively.
Times of delivery of controls and treatment groups were determined as hours after 8 a.m. on day 22 of gestation. […] Delays in delivery less than 80 hours were calculated as less than 100% inhibition. The expulsion of a single pup was noted as delivery. Control groups spontaneously delivered on day 22 of gestation.
The Student's t test was used to compare the treatment groups with its specific control groups to determine the differences in delivery times. A 2-tailed probability value of P<0.05 was considered statistically significant.

[2] = test system: pregnant guinea pigs (preterm delivery); experiment: PGE2-induced preterm delivery in pregnant guinea pigs; type: in vivo, Hartley guinea pigs; settings: TMG 4 mg/day s.c. days 44-47; PGE2 3 mg/day days 46, 47; sacrifice day 48
From the text: Pregnant guinea pigs, another model of pregnancy are also utilized as they more closely resemble the endocrine control of human pregnancy with progesterone levels in pregnancy maintained by the placenta as opposed to the ovaries, which is observed in pregnant rats.
Pregnant Hartley guinea pigs arrived at our facilities at 31-35 days gestation and housed in pairs, with free access to food and water and also maintained on a constant 12-hour light-dark cycle. The animals were euthanized with a combination of xylazine (Gemini; Burns Veterinary Supply Inc, Rockville Center, N.Y.) and ketamine HCL (Ketaset; Fort Dodge Laboratories Inc, Fort Dodge, Iowa). All procedures were approved by the Animal Care and Use Committee of the St. Joseph's Hospital and Medical Center in Phoenix, Ariz.
Pregnant guinea pigs (N=4-6 per group) were allocated into 4 groups (Vehicle (v) only, TMG only, PGE2 only, PGE2+TMG). PGE2 administration (3 mg/day s.c, v=saline) began daily on day 46 to day 47 of gestation. TMG administration (4 mg/day s.c v=BB:CO) began daily on day 44 until day 47 of gestation. All guinea pigs were sacrificed on day 48.

[3] = s.c. single daily treatment from day 20 of gestation
[4] = topical twice a day from day 20 of gestation

SMILES	dose for complete block of delivery (80 hour delay, 100 percent inhibition), subcutaneous [1, 3] [mg]	dose for complete block of delivery, subcutaneous [1, 3] [mg/day]	dose for complete block of delivery (80 hour delay, 100 percent inhibition), topical [1, 4] [mg]	dose for complete block of delivery, topical [1, 4] [mg/day]	guinea pigs delivered (preterm) / treated, substance alone [2]
CC(=O)[C@H]1CC[C@H]2[C@@H]3CCC4=CC(=O)CC[C@]4(C)[C@H]3CC[C@]12C [P4, progesterone]	2	2	15	15	–
CCCCC[C@H](O)/C=C/[C@H]1[C@H](O)CC(=O)[C@@H]1C/C=C\CCCC(=O)O [PGE2, prostaglandin E2]	–	–	–	–	2/3 and 4/6
